ChEMBL document CHEMBL5154650, “Identification and optimization of biphenyl derivatives as novel tubulin inhibitors targeting colchicine-binding site overcoming multidrug resistance” (Eur J Med Chem, 2022)
Active and inactive are the calls of the source. No cut-off for these calls is given here.

What was measured:
A549 = assay: Antiproliferative activity against human A549 cells measured after 72 hrs by SRB assay; format: functional, cell-based
Tubulin (Homo sapiens) [1] = target: T1, Tubulin (Homo sapiens) (UniProt P68371+Q9H4B7+P0DPH7+P68366+Q13509+Q71U36+P04350+Q3ZCM7+P07437+P68363+Q9BQE3+Q6PEY2+Q13885+Q9BVA1+Q9BUF5); assay: Inhibition of tubulin polymerization in human A549 cells assessed as disruption of microtubule network at 50 nM measured by DAPI staining method; format: cell-based
KB/VCR = assay: Antiproliferative activity against human KB/VCR cells at 0.3 to 30 nM measured in presence of 10 uM verapamil after 72 hrs by SRB assay; format: functional, cell-based; details: dose 0.3-30 nM
Tubulin (Homo sapiens) [2] = target: T1, Tubulin (Homo sapiens); assay: Inhibition of tubulin (unknown origin) polymerization incubated for 15 mins at 30 uM relative to control; format: protein-complex assay
K562 = assay: Antiproliferative activity against human K562 cells measured after 72 hrs by SRB assay; format: functional, cell-based; details: K562, 72 h
[3] = Resistant index, ratio IC50 for K562/Adr cells over IC50 for K562 cells; format: functional
K562/Adr = assay: Antiproliferative activity against human K562/Adr cells measured after 72 hrs by SRB assay; format: functional, cell-based

Compound	IC50 (A549; Homo sapiens, A549, 72 h) [nM]	other results
COc1cc(-c2ccc(C(=O)c3ccccc3)cc2)cc(OC)c1OC	> 10000	–
O=C(c1ccccc1)c1ccc(-c2ccccc2)cc1	> 10000	–
Nc1c(F)cc(Cl)cc1-c1ccc(C(=O)c2ccccc2)cc1	> 10000	–
COc1cc(C#N)cc(-c2ccc(C(=O)c3ccccc3)c(N)c2)c1 [listing 1 of 2 here]	–	inhibition (Tubulin (Homo sapiens) [1]): Active; Activity (KB/VCR): Active; inhibition (Tubulin (Homo sapiens) [2]): 75%
COc1cc(C#N)cc(-c2ccc(C(=O)c3ccco3)cc2)c1	> 10000	–
COc1cc(OC)c(-c2ccc(C(=O)c3ccccc3)cc2)cc1OC	> 10000	–
COc1cccc2c1C(=O)c1c(O)c3c(c(O)c1C2=O)C[C@@](O)(C(=O)CO)C[C@@H]3O[C@H]1C[C@H](N)[C@H](O)[C@H](C)O1.Cl [DOXORUBICIN HYDROCHLORIDE]	–	IC50 (K562): 108 nM; Ratio IC50 [3]: 287.7; IC50 (K562/Adr): 31200 nM
COc1cc(OC)c(-c2ccc(C(=O)c3ccccc3)cc2)c(OC)c1	> 10000	–
COc1cc(C#N)cc(-c2ccc(S(=O)(=O)c3ccccc3)cc2)c1	> 10000	–
COc1cc(C#N)cc(-c2cc(OC)c(C(=O)c3ccccc3)cc2OC)c1	> 10000	–
COc1cc(C#N)cc(-c2ccc(C(=O)c3ccccc3)c(N)c2)c1 [listing 2 of 2 here]	–	IC50 (A549; a549): 6 nM

Continued by falling IC50 (A549; Homo sapiens, A549, 72 h), values first:

IC50 (A549; Homo sapiens, A549, 72 h) [nM]	Compound	other results
3890	COc1cc(C#N)cc(-c2ccc(C(=O)c3ccccc3)cc2F)c1	–
1870	O=C(c1ccccc1)c1ccc(-c2cccc(Cl)c2)cc1	–
1580	CCOc1cccc(-c2ccc(C(=O)c3ccccc3)cc2)c1	–
1390	COc1cc(C#N)cc(-c2ccc(C(=O)c3ccccc3N)cc2)c1	–
1070	COc1cc(C#N)cc(-c2ccc(C(=O)c3ccc(Cl)cc3)cc2)c1	–
1030	COc1cc(C#N)cc(-c2ccc(C(=O)c3ccccc3)c(NC(C)=O)c2)c1	–
932	COc1cccc(-c2ccc(C(=O)c3ccccc3)cc2)c1	–
787	N#Cc1cccc(-c2ccc(C(=O)c3ccccc3)cc2)c1	–
770	COc1cc(C#N)cc(-c2ccc(C(O)c3ccccc3)cc2)c1 (configuration not stated)	–
121	COc1cc(C#N)cc(-c2ccc(C(=O)c3cccc(Cl)c3)cc2)c1	–
49	COc1cc(OC)cc(-c2ccc(C(=O)c3ccccc3)c(N)c2)c1	–
17	COc1cccc(C(=O)c2ccc(-c3cc(OC)cc(OC)c3)cc2N)c1	–
